Where two headings read alike, the source gives them in different places.
Columns and labels:
μ-opioid receptor [1] = target: T1, μ-opioid receptor (Homo sapiens (Human), UniProt P35372); assay: μ-opioid receptor radioligand dose-displacement binding assay ([3H]-diprenorphine); details: binding assays using HEK-293 cells
Protocol: Radioligand dose-displacement binding assays for μ-opioid receptors used 0.3 nM [^3H]-diprenorphine (Perkin Elmer, Shelton, Conn.), with […] membrane protein/well in a final volume of 500 μl binding buffer (10 mM MgCl2, 1 mM EDTA, 5% DMSO, 50 mM HEPES, pH 7.4). Reactions were carried out in the absence or presence of increasing concentrations of unlabeled naloxone. All reactions were conducted in 96-deep well polypropylene plates for 2 hours at room temperature. Binding reactions were terminated by rapid filtration onto 96-well Unifilter GF/C filter plates (Perkin Elmer, Shelton, Conn.), presoaked in 0.5% polyethylenimine using a 96-well tissue harvester (Perkin Elmer, Shelton, Conn.) followed by performing three filtration washes with 500 μl of ice-cold binding buffer. Filter plates were subsequently dried at 50° C. for 2-3 hours. BetaScint scintillation cocktail (Perkin Elmer, Shelton, Conn.) was added (50 μl/well), and plates were counted using a Packard Top-Count for 1 min/well. The data were analyzed using the one-site competition curve fitting functions in GraphPad PRISM™ v. 3.0 or higher (San Diego, Calif.), or an in-house function for one-site competition curve-fitting.
(§1) In TABLE 1, binding affinity of certain Compounds of the Invention to the μ- and κ-opioid receptors was determined as described above for binding assays using HEK-293 cells.

κ opioid receptor [2] = target: T2, κ opioid receptor (Homo sapiens (Human), UniProt P41145); assay: κ-opioid receptor radioligand dose-displacement binding assay ([3H]-U69,593); details: binding assays using HEK-293 cells
Protocol: Membranes from HEK-293 cells, CHO or U-2 OS cells expressing the recombinant human κ opioid receptor (κ) were prepared by lysing cells in ice cold hypotonic buffer (2.5 mM MgCl2, 50 mM HEPES, pH 7.4) (10 mL/10 cm dish) followed by homogenization with a tissue grinder/Teflon pestle. Membranes from a cell line naturally expressing kappa opioid receptor can also be used. Membranes were collected by centrifugation at 30,000×g for 15 min at 4° C. and pellets were resuspended in hypotonic buffer to a final concentration of 1-3 mg/mL. Protein concentrations were determined using the BioRad protein assay reagent with bovine serum albumen as standard. Aliquots of K receptor membranes were stored at −80° C.
Radioligand dose displacement assays used 0.4 nM [^3H]-U69,593 (GE Healthcare, Piscataway, N.J.; 40 Ci/mmole) with 15 μg membrane protein (recombinant κ opioid receptor expressed in HEK 293 cells; in-house prep) in a final volume of 200 μl binding buffer (5% DMSO, 50 mM Trizma base, pH 7.4). Non-specific binding was determined in the presence of 10 μM unlabeled naloxone or U69,593. All reactions were performed in 96-well polypropylene plates for 1 hour at a temperature of about 25° C. Binding reactions were terminated by rapid filtration onto 96-well Unifilter GF/C filter plates (Perkin Elmer, Shelton, Conn.) presoaked in 0.5% polyethylenimine (Sigma). Harvesting was performed using a 96-well tissue harvester (Perkin Elmer, Shelton, Conn.) followed by five filtration washes with 200 μl ice-cold binding buffer. Filter plates were subsequently dried at 50° C. for 1-2 hours. Fifty μl/well scintillation cocktail (Perkin Elmer, Shelton, Conn.) was added and plates were counted in a Packard Top-Count for 1 min/well.
as §1

κ opioid receptor [3] = target: T2, κ opioid receptor; assay: κ-opioid receptor [35S]GTPγS functional assay; assay type: biochemical; details: for Emax: functional assays using U-2 OS cells, relative to the effect elicited by U69,593
Protocol: Functional [^35S]GTPγS binding assays were conducted as follows. κ opioid receptor membrane solution was prepared by sequentially adding final concentrations of 0.026 μg/μl κ membrane protein (in-house), 10 μg/mL saponin, 3 μM GDP and 0.20 nM [^35S]GTPγS to binding buffer (100 mM NaCl, 10 mM MgCl2, 20 mM HEPES, pH 7.4) on ice. The prepared membrane solution (190 μl/well) was transferred to 96-shallow well polypropylene plates containing 10 μl of 20× concentrated stock solutions of agonist prepared in DMSO. Plates were incubated for 30 min at a temperature of about 25° C. with shaking. Reactions were terminated by rapid filtration onto 96-well Unifilter GF/B filter plates (Perkin Elmer, Shelton, Conn.) using a 96-well tissue harvester (Packard) and followed by three filtration washes with 200 μl ice-cold binding buffer (10 mM NaH2PO4, 10 mM Na2HPO4, pH 7.4). Filter plates were subsequently dried at 50° C. for 2-3 hours. Fifty μl/well scintillation cocktail (Perkin Elmer, Shelton, Conn.) was added and plates were counted in a Packard Top-Count for 1 min/well.
κ GTP EC50 is the concentration of a compound providing 50% of the maximal response for the compound at a K receptor.
κ GTP Emax (%) is the maximal effect elicited by a compound relative to the effect elicited by U69,593.
(§2) In TABLE 2, activity response of certain Compounds of the Invention to the μ- and κ-opioid receptors was determined as described above for functional assays using U-2 OS cells.

μ-opioid receptor [4] = target: T1, μ-opioid receptor; assay: μ-opioid receptor [35S]GTPγS functional assay; assay type: biochemical
Protocol: [^35S]GTPγS functional assays were conducted using freshly thawed μ-receptor membranes prepared in-house from a cell line expressing recombinant μ opioid receptor in a HEK-293, CHO or U-2 OS cell background, or purchased from a commercial source (Perkin Elmer, Shelton, Conn.; or DiscovRx, Fremont, Calif.). Assay reactions were prepared by sequentially adding the following reagents to binding buffer (100 mM NaCl, 10 mM MgCl2, 20 mM HEPES, pH 7.4) on ice (final concentrations indicated): membrane protein (0.026 mg/mL), saponin ([…]), GDP ([…]) and [^35S]GTPγS (0.20 nM; Perkin Elmer, Shelton, Conn.). The prepared membrane solution (190 l/well) was transferred to 96-shallow well polypropylene plates containing 10 μl of 20× concentrated stock solutions of the agonist [D-Ala^2, N-methyl-Phe^4 Gly-ol^5]-enkephalin (DAMGO) prepared in dimethyl sulfoxide (DMSO). Plates were incubated for 30 min at about 25° C. with shaking. Reactions were terminated by rapid filtration onto 96-well Unifilter GF/B filter plates (Perkin Elmer, Shelton, Conn.) using a 96-well tissue harvester (Perkin Elmer, Shelton, Conn.) followed by three filtration washes with 200 μl of ice-cold wash buffer (10 mM NaH2PO4, 10 mM Na2HPO4, pH 7.4). Filter plates were subsequently dried at 50° C. for 2-3 hours. BetaScint scintillation cocktail (Perkin Elmer, Shelton, Conn.) was added (50 μl/well) and plates were counted using a Packard Top-Count for 1 min/well. Data were analyzed using the sigmoidal dose-response curve fitting functions in GraphPad PRISM v. 3.0, or an in-house function for non-linear, sigmoidal dose-response curve-fitting.
μ GTP EC50 is the concentration of a compound providing 50% of the maximal response for the compound at a μ-opioid receptor.
μ GTP Emax (%) is the maximal effect elicited by a compound relative to the effect elicited by DAMGO, a standard μ agonist. Generally, the μ GTP Emax (%) value measures the efficacy of a compound to treat or prevent pain or other Conditions.
as §2

[5] = bound given in μM, read-out: Opioid Receptor Ki μ
[6] = bound given in μM, read-out: Opioid Receptor Ki κ
[7] = read-out: Opioid Receptor Ki (nM) κ
[8] = read-out: Opioid Receptor Ki (nM) μ

SMILES | Ki (μ-opioid receptor [1]; [5]) | Ki (κ opioid receptor [2]; [6]) | Ki (κ opioid receptor [2]; [7]) | other results
COc1ccc2c3c1O[C@@H]1[C@]34CCN(CC3CC3)[C@H]([C@@H]2O)[C@]4(O)CC[C@]12NC(=O)NC2=O (stereo in doubt) [Compound 9, (4S,4′R,4a′S,7a′R,12b′S,13′R)-3′-(cyclopropylmethyl)-4a′,13′-dihydroxy-9′-methoxy-2′,3′,4′,4a′,5′,6′-hexahydro-1′H,7a′H-spiro[imidazazolidine-4,7′-[4,12]methanobenzofuro[3,2-e]isoquinoline]-2,5-dione] | > 20 µM | > 20 µM | – | –
COc1ccc2c(c1)[C@]13CCN(CC4CC4)[C@H](C2=O)[C@]1(O)CC[C@@]1(C3)NC(=O)NC1=O [Compound 6, (4bR,4′S,8aS,9S)-11-(cyclopropylmethyl)-8a-hydroxy-3-methoxy-7,8,8a,9-tetrahydrospiro[9,4b-(epiminoethano)phenanthrene-6,4′-imidazolidine]-2′,5′,10(5H)-trione] | > 20 µM | – | 1.05 ± 0.0846 µM | –
COc1ccc2c(c1)[C@]13CCN(CC4CC4)[C@H]([C@@H]2O)[C@]1(O)CC[C@@]1(C3)NC(=O)NC1=O [Compound 7, (4bR,4′S,8aS,9R,10R)-11-(cyclopropylmethyl)-8a,10-dihydroxy-3-methoxy-5,7,8,8a,9,10-hexahydrospiro[9,4b-(epiminoethano)phenanthrene-6,4′-imidazolidine]-2′,5′-dione] | > 20 µM | > 20 µM | – | –
COc1ccc2c3c1O[C@@H]1[C@]34CCN(CC3CC3)[C@H](C2=O)[C@]4(O)CC[C@]12NC(=O)NC2=O [Compound 8, (4S,4′S,4a′S,7a′R,12b′S)-3′-(cyclopropylmethyl)-4a′-hydroxy-9′-methoxy-2′,3′,4′,4a′,5′,6′-hexahydro-1′H,7a′H-spiro[imidazolidine-4,7′-[4,12]methanobenzofuro[3,2-e]isoquinoline]-2,5,13′-trione] | > 20 µM | > 20 µM | – | –
COc1ccc2c(c1)[C@]13CCN(CC4CC4)[C@H]([C@@H]2O)[C@@H]1CC[C@@]1(C3)NC(=O)NC1=O [Compound 10, (4bS,4′S,8aR,9S,10R)-11-(cyclopropylmethyl)-10-hydroxy-3-methoxy-5,7,8,8a,9,10-hexahydrospiro[9,4b-(epiminoethano)phenanthrene-6,4′-imidazolidine]-2′,5′-dione] | > 20 µM | – | 3.58 ± 0.647 µM | –
COc1ccc2c(c1)[C@]13CCN(C)[C@H](C2=O)[C@]1(O)CC[C@@]1(C3)NC(=O)NC1=O [Compound 11, (4bR,4′S,8aS,9S)-8a-hydroxy-3-methoxy-11-methyl-7,8,8a,9-tetrahydrospiro [9,4b-(epiminoethano)phenanthrene-6,4′-imidazolidine]-2′,5′,10(5H)-trione] | > 20 µM | > 20 µM | – | –
COc1ccc2c(c1)[C@]13CCN(C)[C@H]([C@@H]2O)[C@]1(O)CC[C@@]1(C3)NC(=O)NC1=O [Compound 12, (4bR,4′S,8aS,9R,10R)-8a,10-dihydroxy-3-methoxy-11-methyl-5,7,8,8a,9,10-hexahydrospiro[9,4b-(epiminoethano)phenanthrene-6,4′-imidazolidine]-2′,5′-dione] | – | > 20 µM | – | Ki (μ-opioid receptor [1]; [8]): 12.6 µM
O=C1NC(=O)[C@@]2(CC[C@@]3(O)[C@H]4[C@H](O)c5ccc(O)cc5[C@@]3(CCN4CC3CC3)C2)N1 [Compound 14, (4bR,4′S,8aS,9R,10R)-11-(cyclopropylmethyl)-3,8a,10-trihydroxy-5,7,8,8a,9,10-hexahydrospiro[9,4b-(epiminoethano)phenanthrene-6,4′-imidazolidine]-2′,5′-dione] | – | – | 0.0781 ± 0.021 µM | Ki (μ-opioid receptor [1]; [8]): 1.02 ± 0.0521 µM; EC50 (κ opioid receptor [3]): 0.183 ± 0.0173 µM; Emax (κ opioid receptor [3]): 111 ± 2.91%
O=C1NC(=O)[C@@]2(CC[C@@]3(O)[C@H]4C(=O)c5ccc(O)c6c5[C@@]3(CCN4CC3CC3)[C@H]2O6)N1 [Compound 15, (4S,4′S,4a′S,7a′R,12b′S)-3′-(cyclopropylmethyl)-4a′,9′-dihydroxy-2′,3′,4′,4a′,5′,6′-hexahydro-1′H,7a′H-spiro [imidazolidine-4,7′-[4,12]methanobenzofuro [3,2-e]isoquinoline]-2,5,13′-trione] | – | – | 2.52 ± 0.708 µM | Ki (μ-opioid receptor [1]; [8]): 15.4 ± 3.13 µM
O=C1NC(=O)[C@@]2(CC[C@@]3(O)[C@H]4[C@H](O)c5ccc(O)c6c5[C@@]3(CCN4CC3CC3)[C@H]2O6)N1 [Compound 16, (4S,4′R,4a′S,7a′R,12b′S,13′R)-3′-(cyclopropylmethyl)-4a′,9′,13′-trihydroxy-2′,3′,4′,4a′,5′,6′-hexahydro-1′H,7a′H-spiro[imidazolidine-4,7′-[4,12]methanobenzofuro [3,2-e]isoquinoline]-2,5-dione] | > 20 µM | > 20 µM | – | –
CN1CC[C@]23C[C@]4(CC[C@@]2(O)[C@H]1[C@H](O)c1ccc(O)cc13)NC(=O)NC4=O [Compound 17, (4bR,4′S,8aS,9R,10R)-3,8a,10-trihydroxy-11-methyl-5,7,8,8a,9,10-hexahydrospiro[9,4b-(epiminoethano)phenanthrene-6,4′-imidazolidine]-2′,5′-dione] | – | – | – | EC50 (μ-opioid receptor [4]): 0.116 ± 0.023 µM; Emax (μ-opioid receptor [4]; functional assays using U-2 OS cells, relative to the effect elicited by DAMGO): 98.8 ± 0.97%; EC50 (κ opioid receptor [3]): 5.78 ± 1.1 µM; Emax (κ opioid receptor [3]): 107 ± 1.53%

From patent publication US9994571B2, “10-substituted morphinan hydantoins” (Purdue Pharma L.P., priority 2013, dated 2018)
